# From PMC4830539, “Chemical Inhibition of Histone Deacetylases 1 and 2 Induces Fetal Hemoglobin through Activation of GATA2” (PLoS ONE, 2016)
# pIC50: −log10 of the molar value.
# Key:
# GATA2, GATA1, KLF1 mRNA = assay: Gene expression of candidate HBG modulators by QPCR in CS1; type: cell-based, human; conditions: CS1, 1 μM
# Description: Globin mRNA was detected using quantitative real time PCR (QPCR). Total RNA was isolated using RNeasy Micro Kit (Qiagen) with on-column DNase digestion, converted into cDNA using the High Capacity RNA-to-cDNA Kit (Life Technologies), diluted 5-fold with water, and 1 μL used as a template for QPCR. The percent of each β-like globin transcript was determined using the absolute standard curve method. Briefly, DNA corresponding to the full length transcript for each globin isoform was cloned into […] plasmid (GenScript, Piscataway NJ). Each plasmid was validated against each QPCR probe to ensure specificity. Plasmids were pooled at equal molar concentration and a dilution series spanning 8-logs was utilized as the standard curve. Throughout this work, ‘HBG mRNA (%)’ and ‘percent HBG mRNA’ refers to the abundance of HBG mRNA expressed relative to the sum of the abundances of all β-like globin transcripts, i.e. [HBG/(HBB+HBD+HBG+HBE)]*100. In cases where the transcript of interest was compared against the housekeeping gene ACTB, the comparative Ct ([…]) method was utilized. Probes used for QPCR: HBB (Hs00747223_g1), HBD (Hs00426283_m1), HBG (Hs00361131_g1, detects both HBG1 and HBG2), HBE (Hs00362215_g1), GATA1 (Hs01085823_m1), GATA2 (Hs00231119_m1), KLF1 (Hs00610592_m1), MYB (Hs00920556_m1), SOX6 (Hs00264525_m1), BCL11A (Hs01093197_m1), and ACTB (Hs99999903_m1). […]
# histone acetylation = assay: Histone acetylation by western blot in primary human erythroblasts; type: cell-based; conditions: 1 μM or 5 μM, 24 hours
# From the text: The EpiQuick Total Histone Extraction kit (Epigentek) was used to isolate histones. Histone lysates were size separated on Bolt 4–12% Bis-Tris gradient gels (Life Technologies), transferred to polyvinylidene difluoride membrane and detected using standard western blotting technique. GATA2 protein was detected by lysing cells in RIPA denaturing buffer supplemented with protease inhibitors followed by detection using a Wes capillary electrophoresis system (Protein Simple) or western blotting on nitrocellulose membrane. Antibodies used for western blotting: Anti-GATA2 [clone EPR2822(2)] (Abcam), anti-ACTB [clone 1E35] (Cell Signaling Technology), anti-H3K9/14 [catalog number 17–615] (EMD Millipore), anti-H3K56ac [clone EPR996Y] (Abcam), anti-H3K79 [catalog number 07–750] (EMD Millipore), anti-H2BK5 [catalog number 2574] (Cell Signaling Technology), anti-H3K9me3 [catalog number 07–442] (EMD Millipore), and anti-total-H4 [clone 62-141-13] (EMD Millipore).
# Next, ACY-957’s ability to inhibit HDAC activity in primary hematopoietic progenitors derived from human bone marrow was investigated. […]
# [1] = parameters: method as in earlier work; conditions: mouse; cited from earlier work
# HDAC9 = system: T1, HDAC9; assay: In vitro biochemical HDAC enzyme assay; conditions: at concentrations as high as 20 μM
# T1 construct: purchased BPS Biosciences
# Description: (§1) In vitro biochemical assays were performed as described previously. Specifically, drugs were dissolved and diluted in assay buffer (50 mM HEPES, pH 7.4, 100 mM KCl, 0.001% Tween-20, 0.05% BSA, and 20 μM Tris (2-carboxyethyl)phosphine) to 6-fold the final concentration. HDAC enzymes (BPS Biosciences) were diluted to 1.5-fold of the final concentration in assay buffer and pre-incubated with ACY-957 for 24 hours before the addition of the substrate. The amount of substrate (acetyl-lysine tripeptide substrate for HDAC1, HDAC2, HDAC3, and HDAC6 or trifluoroacetyl-lysine tripeptide for HDAC4, HDAC5, HDAC7, HDAC8, and HDAC9) used for each enzyme was equal to the Michaelis constant (Km), as determined by a titration curve. Substrate was diluted in assay buffer to 6-fold the final concentration with 0.3 μM sequencing grade trypsin (Sigma-Aldrich). The substrate/trypsin mix was added to the enzyme/compound mix and the plate was shaken for 5 seconds and then placed into a SpectraMax M5 microtiter plate reader (Molecular Devices). The enzymatic reaction was monitored over 30 minutes for release of […] after deacetylation of the lysine side chain in the peptide substrate, and the linear rate of the reaction was calculated.
# (§2) ACY-957 was tested against each individual HDAC in an in vitro biochemical assay as previously described. Aminobenzamides have slow association rate constants, therefore a prolonged pre-incubation time of 24 hours is required to reach equilibrium.
# HDAC6 = system: T2, HDAC6; assay: In vitro biochemical HDAC enzyme assay; conditions: at concentrations as high as 20 μM
# T2 construct: purchased BPS Biosciences
# Description: as §1, §2
# HDAC1 = HDAC1 (Homo sapiens, UniProt Q13547); assay: In vitro biochemical HDAC enzyme assay; conditions: 24 hours pre-incubation; mean, n = 4
# HDAC1, sequence (Q13547 whole entry): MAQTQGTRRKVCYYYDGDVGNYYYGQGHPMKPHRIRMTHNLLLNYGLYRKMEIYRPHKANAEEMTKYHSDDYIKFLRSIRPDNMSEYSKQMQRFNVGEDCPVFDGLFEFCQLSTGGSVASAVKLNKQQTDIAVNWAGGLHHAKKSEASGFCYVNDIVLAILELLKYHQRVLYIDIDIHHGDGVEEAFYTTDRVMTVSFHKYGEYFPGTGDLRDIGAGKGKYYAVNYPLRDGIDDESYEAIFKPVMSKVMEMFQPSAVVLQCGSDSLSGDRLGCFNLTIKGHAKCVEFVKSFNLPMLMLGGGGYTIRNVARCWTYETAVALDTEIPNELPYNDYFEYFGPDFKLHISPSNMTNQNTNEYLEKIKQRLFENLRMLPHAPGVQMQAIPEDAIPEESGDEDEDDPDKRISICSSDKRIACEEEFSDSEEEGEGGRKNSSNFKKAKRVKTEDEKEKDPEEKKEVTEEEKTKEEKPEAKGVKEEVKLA
# Description: as §1, §2
# HDAC7 = system: T3, HDAC7; assay: In vitro biochemical HDAC enzyme assay; conditions: at concentrations as high as 20 μM
# T3 construct: purchased BPS Biosciences
# Description: as §1, §2
# HDAC5 = system: T4, HDAC5; assay: In vitro biochemical HDAC enzyme assay; conditions: at concentrations as high as 20 μM
# T4 construct: purchased BPS Biosciences
# Description: as §1, §2
# HDAC4 = system: T5, HDAC4; assay: In vitro biochemical HDAC enzyme assay; conditions: at concentrations as high as 20 μM
# T5 construct: purchased BPS Biosciences
# Description: as §1, §2
# HDAC3 = HDAC3 (Homo sapiens, UniProt O15379); assay: In vitro biochemical HDAC enzyme assay
# HDAC3, sequence (O15379 whole entry): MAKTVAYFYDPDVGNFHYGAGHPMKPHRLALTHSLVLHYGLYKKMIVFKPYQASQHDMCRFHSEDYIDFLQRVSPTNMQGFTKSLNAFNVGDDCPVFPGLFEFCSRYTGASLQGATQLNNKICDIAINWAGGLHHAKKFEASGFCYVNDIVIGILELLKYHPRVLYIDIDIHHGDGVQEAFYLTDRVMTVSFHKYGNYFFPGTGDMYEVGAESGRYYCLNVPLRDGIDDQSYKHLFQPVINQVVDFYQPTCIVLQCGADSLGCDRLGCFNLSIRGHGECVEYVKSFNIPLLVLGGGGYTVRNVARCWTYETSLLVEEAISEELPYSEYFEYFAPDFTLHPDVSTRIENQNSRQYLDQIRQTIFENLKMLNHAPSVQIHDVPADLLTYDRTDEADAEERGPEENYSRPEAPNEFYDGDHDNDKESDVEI
# HDAC3, sequence (Q9Y618 395-489 partner limits assumed): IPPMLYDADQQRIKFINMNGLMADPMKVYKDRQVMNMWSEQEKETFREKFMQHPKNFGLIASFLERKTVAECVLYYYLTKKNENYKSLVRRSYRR
# Description: as §1, §2
# HDAC8 = system: T6, HDAC8; assay: In vitro biochemical HDAC enzyme assay; conditions: at concentrations as high as 20 μM
# T6 construct: purchased BPS Biosciences
# Description: as §1, §2
compound,measurement,setting,value
Nc1ccc(-c2cccs2)cc1NC(=O)c1ccc2nc(N3CCNCC3)ccc2c1 [ACY-957],GATA1 and KLF1 mRNA,"GATA2, GATA1, KLF1 mRNA; 4 days",unaffected
same,GATA2 mRNA increase relative to control cells,"GATA2, GATA1, KLF1 mRNA; day 4",3.3 fold
same,"acetylation of H3K9/14ac, H3K56, H3K79ac and H2BK5ac",histone acetylation,dose-dependent accumulation of acetylation
same,histone H3 lysine 9 tri-methylation (H3K9me3),histone acetylation,not affected
same,pharmacokinetic properties,[1],favorable
same,inhibition of HDAC9,HDAC9,no inhibition
same,inhibition of HDAC6,HDAC6,no inhibition
same,pIC50,HDAC1,8.15
same,inhibition of HDAC7,HDAC7,no inhibition
same,inhibition of HDAC5,HDAC5,no inhibition
same,inhibition of HDAC4,HDAC4,no inhibition
same,pIC50,"HDAC3; 24 hours pre-incubation, mean, n = 4",5.89
same,selectivity for HDAC1/2 over HDAC3,HDAC3; biochemical assay,approximately 100 fold
same,inhibition of HDAC8,HDAC8,no inhibition
